Legend:
Type in all cases: in vivo
[1] = system: female mosquitoes of Culex pipiens pallens; assay: Mosquito-repellent incense mosquito-killing efficacy, sealed drum apparatus (GB/T13917.4-2009); details: for KT50: mosquito-repellent incense W1-W5, active ingredient 0.04 w/w %, incense burnt 1 min, 20 female Culex pipiens pallens
Protocol: 99.96 parts by weight of a mixture consisting of corn starch, carbon powder and wood powder (1:5:4) were added with 120 parts by mass of water, kneaded into shape, and then dried to form a mosquito-repellent incense substrate (with a diameter of 12.0 cm, a thickness of 4 mm, and a pair weighing 40 g).
On the other hand, a 0.4 w/v % solution of compound 1 in kerosene was prepared. The set of incense substrate was uniformly spray-coated with 4 ml of the above solution using a microsyringe, and then left to dry at room temperature for 3 h to obtain a set of mosquito-repellent incense W1 containing 0.04 w/w % compound 1.
Similarly, compounds 2-3 of the present invention shown in Table 1, as well as Momfluorothrin and tetramethylfluthrin were prepared respectively to obtain corresponding mosquito-repellent incenses W2 to W5.
The mosquito-repellent incenses W2 to W5 were measured and compared in terms of mosquito-killing efficacy in accordance with GB/T13917.4-2009. […] The specific process was as follows: sucking 20 test mosquitoes with a mosquito suction tube, placing them into a sealed drum apparatus, taking a section of mosquito-repellent incense to be tested and placing it on an incense holder, lighting the incense and starting timing, removing the mosquito-repellent incense after 1 min, and recording the number of test mosquitos knocked down at regular intervals.

Rat acute oral toxicity = details: in vivo, read-out: rat acute oral toxicity median lethal dose (LD50)
rat [2] = assay: Rat acute oral toxicity
[3] = Rat acute dermal toxicity; details: in vivo, topical or ocular, read-out: rat acute dermal toxicity median lethal dose (LD50)
rat [4] = assay: Rat acute dermal toxicity
Mosquitoes = assay: Insecticidal aerosol efficacy, sealed drum apparatus (GB/T13917.2-2009), mosquitoes; details: for Mortality rate: aerosol 0.3% active ingredient, 24 h; for Mortality rate / KT50: 1 g sprayed, mosquitoes; for KT50: aerosol containing 0.3% active ingredient
Protocol: (§1) 0.3 parts by weight of compound 1 with 59.7 parts by weight of kerosene were heated and evenly mixed to prepare an insecticide. The resulting preparation was placed in an aerosol can equipped with a valve, through which 40.0 parts by weight of propane and butane were injected underpressure, to obtain an insecticidal aerosol containing 0.3% compound 1.
(§2) The insecticidal aerosol was tested for efficacy on mosquitoes, flies, and German cockroaches in accordance with GB/T13917.2-2009, using a sealed drum apparatus. The specific process was as follows: placing the test insects into a tank, and after the test insects resumed normal activities, quantitatively spraying 1 g of the agent from the insecticidal aerosol can, pulling out the baffle after 1 min to make the test insects in contact with the agent, immediately starting timing and recording the number of the test insects knocked down at regular intervals, transferring all the test insects to a clean insect rearing cage after 20 min, and checking the number of dead insects after 24 h, wherein the German cockroaches were tested for 72-h mortality rate.
(§3) The aerosols of compounds 1-3, Momflurothrin and tetramethylfluthrin were prepared according to Test Example 2, and were tested for efficacy.

Flies = assay: Insecticidal aerosol efficacy, sealed drum apparatus (GB/T13917.2-2009), flies; details: 1 g sprayed; for Mortality rate: aerosol 0.3% active ingredient, 24 h; for KT50: aerosol containing 0.3% active ingredient
Protocol: as §1, §2, §3

German cockroaches = assay: Insecticidal aerosol efficacy, sealed drum apparatus (GB/T13917.2-2009), German cockroaches; details: 1 g sprayed; for Mortality rate: aerosol 0.3% active ingredient, 72 h; for KT50: aerosol containing 0.3% active ingredient
Protocol: as §1, §2, §3

Row | SMILES | KT50 [1] | LD50 (Rat acute oral toxicity) | acute oral toxicity classification (rat [2]) | LD50 [3] | acute dermal toxicity classification (rat [4]) | Mortality rate (Mosquitoes) | KT50 (Mosquitoes) | Mortality rate (Flies) | KT50 (Flies) | Mortality rate (German cockroaches) | KT50 (German cockroaches) | activity as mosquito-repellent incense ([1]; as mosquito-repellent incense) | knockdown activity against mosquitoes (Mosquitoes; as an aerosol in a cylindrical container)
1 | CC1(C)C(/C=C\C#N)C1C(=O)OCc1c(F)c(F)cc(F)c1F (centres unmarked) [Compound 3, 2,3,5,6-tetrafluorobenzyl (Z)-3(2-cyanovinyl)-2,2-dimethylcyclopropanecarboxylate] | 4.65 min | > 5000 mg/kg | slightly toxic | > 5000 mg/kg | slightly toxic | 100% | 2.45 min | 100% | 3.45 min | 95% | 5.52 min |  | 
2 | COCc1c(F)c(F)c(COC(=O)C2C(C)(C)C2(C)C)c(F)c1F [tetramethylfluthrin, reference compound] | 9.23 min |  |  |  |  | 100% | 6.46 min | 80% | 8.56 min | 65% | 9.12 min |  | 
3 | COCc1c(F)c(F)c(COC(=O)C2C(/C=C(/C)C#N)C2(C)C)c(F)c1F (centres unmarked) [Momfluorothrin, reference compound] | 27.87 min |  |  |  |  | 100% | 12.35 min | 70% | 15.28 min | 60% | 17.56 min | relatively poor activity | good knockdown activity
4 | CC1(C)C(/C=C\C#N)C1C(=O)OCc1c(F)ccc(F)c1F (centres unmarked) [Compound 2, 2,3,6-trifluorobenzyl (Z)-3-(2-cyanovinyl)-2,2-dimethylcyclopropanecarboxylate] | 5.42 min |  |  |  |  | 100% | 3.58 min | 100% | 4.65 min | 90% | 6.26 min |  | 
5 | CC1(C)C(/C=C\C#N)C1C(=O)OCc1cc(F)cc(F)c1F (centres unmarked) [Compound 1, 2,3,5-trifluorobenzyl (Z)-3-(2-cyanovinyl)-2,2-dimethylcyclopropanecarboxylate] | 2.45 min |  |  |  |  | 100% | 1.33 min | 100% | 2.32 min | 95% | 4.05 min |  | 

— patent publication US20250313526A1, “PYRETHROID COMPOUND CONTAINING DOUBLE BONDS AND CYANO GROUPS, SYNTHESIS METHOD THEREFOR, AND APPLICATION THEREOF” (Jiangsu Yangnong Chemical Co., Ltd., priority 2022, published 2025)
